# Where two headings read alike, the source gives them in different places.
# Tested on: M. tuberculosis Clinical isolate: S, H, R and E resistant
# Assay type: cell-based, Mycobacterium tuberculosis
# Details: 72 hours
SMILES,% reduction in RLU (0.5 μg/mL),% reduction in RLU (5 μg/mL),% reduction in RLU (10 μg/mL)
C=C(NC(=O)C(=C)NC(=O)c1csc(C2=NC3c4csc(n4)C4NC(=O)c5csc(n5)C(C(C)(O)C(C)O)NC(=O)C5CSC(=N5)/C(=C\C)NC(=O)C(C(C)O)NC(=O)c5csc(n5)C3(CC2)NC(=O)C(C)NC(=O)C(=C)NC(=O)C(C)NC(=O)C(C(C)C)NC2C=Cc3c(C(C)O)cc(nc3C2O)C(=O)OC4C)n1)C(N)=O (stereo not drawn) [Compound of Formula I(a)],20.88%,78.11%,88.42%
C=C(NC(=O)c1csc(C2=NC3c4csc(n4)C4NC(=O)c5csc(n5)C(C(C)(O)C(C)O)NC(=O)C5CSC(=N5)/C(=C\C)NC(=O)C(C(C)O)NC(=O)c5csc(n5)C3(CC2)NC(=O)C(C)NC(=O)C(=C)NC(=O)C(C)NC(=O)C(C(C)C)NC2C=Cc3c(C(C)O)cc(nc3C2O)C(=O)OC4C)n1)C(=O)NC(C)C(N)=O (stereo not drawn) [Compound of Formula I(b)],5.67%,70.9%,83.74%

# — US10501492B2, “Antibiotic compounds” (priority 2009, dated 2019)
